“Also recorded” adds a separate entry of the source. Counter-ions that a name gives are not always drawn. Like-named read-outs stand apart in the source and are kept apart here.
Tests used:
[1] = test system: Plasmodium falciparum L-3/Ivory Coast; assay: In vitro drug susceptibility test ([3H]hypoxanthine uptake), strain L-3/Ivory Coast; assay type: cell-based; conditions: two values given
Procedure: (§1) Three strains of P. falciparum were used. FCM 29/Cameroon was highly chloroquine- and quinine-resistant (IC50 […] and 800 nM, respectively). The strain was cloned by a dilution method. FCM 6/Thailand was moderately chloroquine-resistant (IC50 600 nM), while L-3/Ivory Coast was chloroquine-susceptible (IC50 20 nM). The continuous in vitro culture of the parasites was maintained under standard conditions, as described by W. Trager and J. B. Jensen, "Human malaria parasites in continuous culture", Science 193, 673-675 (1976), with a gas phase of 5% O2, 5% CO2, and 90% N2.
(§2) The test compound was dissolved in methanol to a concentration of 1 mg/ml. Triplicates of seven serial dilutions were prepared to obtain the final concentrations ranging from 0.4 to 25 ng/ml and distributed in 24-well plates. […]
(§3) The testing procedures used for the in vitro assay in this study were those described by J. Le Bras and P. Deloron, "In vitro study of drug sensitivity of Plasmodium falciparum: an evaluation of a new semi-microtest", American Journal of Tropical Medicine and Hygiene 32: 447-451 (1983). […] The filter discs were dried and placed in a mini-vial with 1.5 ml of liquid scintillation cocktail (OptiScint `Hisafe`, LKB, Wallac, England) and the amount of radioactivity incorporated by the parasites was measured by a liquid scintillation counter (Wallac 1410, Pharmacia, Sweden). […]

[2] = test system: Plasmodium falciparum FCM 6/Thailand; assay: In vitro drug susceptibility test ([3H]hypoxanthine uptake), strain FCM 6/Thailand; assay type: cell-based; conditions: mean ± SEM from four separate assays
Procedure: as §1, §2, §3

[3] = test system: Plasmodium falciparum FCM 29/Cameroon; assay: In vitro drug susceptibility test ([3H]hypoxanthine uptake), strain FCM 29/Cameroon; assay type: cell-based
Procedure: as §1, §2, §3

[4] = test system: Plasmodium falciparum; assay: In vitro antimalarial activity against established lines of P. falciparum (overall statement); assay type: cell-based
Procedure: The compound of Synthesis Example 1 was tested against the established lines of Plasmodium falciparum in vitro. Halofantrine hydrochloride was used as a reference drug.
as §1
The test compound was dissolved in methanol to a concentration of 1 mg/ml. […]
as §3

[5] = test system: Plasmodium berghei KBG 173; assay: Survival of mice infected with drug-sensitive malaria, compound of Synthesis Example 3, halofantrine or mefloquine; assay type: in vivo, Plasmodium berghei KBG 173 in ICR/HA Swiss mice
[6] = test system: Plasmodium berghei KBG 173; assay: as above; assay type: in vivo, Plasmodium berghei KBG 173 in ICR/HA Swiss mice; conditions: SC
Excerpt: The protocol which is set forth below is a well-established model for the treatment of malaria in human beings, and has been adopted by the U.S. Army Medial Research Command.
The system used for the compounds formed in Synthesis Examples 2 and 3 was based on comparisons of responses to test compounds by Plasmodium berghei KBG 173 malaria in mice as expressed in mean survival times and the mean survival times of untreated controls. Thus, compounds noted as active produced increases in the survival times of the treated animals that are significant when compared with the survival times of untreated controls. Since an established disease is less sensitive to treatment than a disease in the early stages of development, treatment was withheld until the parasitemia was relatively high in order to ensure a more reliable assay of activity and the selection of appropriate compounds for pre-clinical studies.
(§4) Utilizing young ICR/HA Swiss mice and a standard inoculum of Plasmodium berghei KBG 173, it was possible to produce a uniform disease fatal to […] of untreated animals within 6 to 8 days with a mean survival time of 6.2 days. Test animals weighed from 18 to 22 grams but weight variations in any given experimental or control group were confined to 2-3 grams. All animals in any given test were approximately of the same age. Animals on test were housed in metal-topped plastic cages, given a standard laboratory diet and water ad libitum.
(§5) Test animals received an intraperitoneal injection of 0.5 ml of 1:100 dilution of heparinized heart's blood with a minimum of 90% parasitized cells (4×10^7 cells), drawn from donor mice infected one week earlier with Plasmodium berghei. The donor strain was maintained by weekly passages in separate groups of mice inoculated with a 0.5 ml of 1:500 dilution of heparinized heart's blood.
(§6) Test compounds were administered after dissolution or suspension in peanut oil. A single dose was given subcutaneously 72 hours after the mice were infected with Plasmodium berghei. At this time a 10-15 percent parasitemia had developed; the disease was well established but had not produced sufficient debility to alter the response of the host to toxic effects of the drug on test. Since treatment was withheld for three days to permit the infection to become well-established and death occurred in untreated controls within 6-8 days, it was felt that this system presented a candidate compound with the maximum challenge.

[7] = test system: Plasmodium berghei KBG 173; assay: Survival of malaria infected mice, compound of Synthesis Example 2, halofantrine or mefloquine; assay type: in vivo, Plasmodium berghei KBG 173 in ICR/HA Swiss mice
[8] = in vivo; cited from earlier work
[9] = test system: Chesson strain of P. vivax; conditions: short period, minimum of two doses; cited from earlier work
[10] = test system: P. falciparum (multi-drug resistant Vietnam Smith strain and Cambodian Buchanan strain); conditions: short period, minimum of two doses; Vietnam Smith and Cambodian Buchanan strains; cited from earlier work
[11] = Toxicity in malaria infected mice; assay type: in vivo, ICR/HA Swiss mice; conditions: 256 mg/kg/day
Excerpt: as §4, §5
Test compounds were administered after dissolution or suspension in peanut oil. A single dose was given subcutaneously 72 hours after the mice were infected with Plasmodium berghei. At this time a 10-15 percent parasitemia had developed; the disease was well established but had not produced sufficient debility to alter the response of the host to toxic effects of the drug on test. […]

[12] = test system: Plasmodium berghei KBG 173; assay: Mean parasitemias for mice treated with the compound of Synthesis Example 2; assay type: in vivo, Plasmodium berghei KBG 173 in ICR/HA Swiss mice
[13] = test system: Plasmodium berghei; assay: Positive control group of infected mice treated with pyrimethamine; assay type: in vivo, Plasmodium berghei in ICR/HA Swiss mice; conditions: dose levels not stated
Procedure: as §6

[14] = test system: Plasmodium falciparum (chloroquine-sensitive and resistant strains); conditions: cited from earlier work

CCCCNCCC(O)c1cc2c(Cl)cc(Cl)cc2c2cc(C(F)(F)F)ccc12.Cl (centres unmarked) [Synthesis Example 1, 1,3-Dichloro-6-trifluoromethyl-9-[1-hydroxy-3-(butylamino)propyl] phenanthrene hydrochloride]
IC50 ([1]; Plasmodium falciparum): 4.3 ng/mL
IC50 ([1]; hydrochloride): 4.8 ng/mL
IC50 [2]: 3 ± 0.2 ng/mL
IC50 [3]: 3.5 ± 0.6 ng/mL
activity compared with halofantrine ([4]; P. falciparum, reference halofantrine): slightly less than that of halofantrine
antimalarial activity ([4]; chloroquine-susceptible and chloroquine-resistant strains, hydrochloride): high antimalarial activity against both chloroquine-susceptible and chloroquine-resistant strains; also recorded: potent antimalarial action at a low nanomolar range

Cl.OC(CCNCCCc1ccccc1)c1cc2c(Cl)cc(Cl)cc2c2cc(C(F)(F)F)ccc12 (centres unmarked) [Synthesis Example 3, 1,3-dichloro-6-trifluoromethyl-9-[1-hydroxy-3-(3-phenyl-1-propylamino)propyl] phenanthrene hydrochloride]
number of mice alive D + 18 / total ([5]; 1 mg/kg/day, PO): 2/7
number of mice alive D + 18 / total ([5]; 1 mg/kg/day, SC): 1/7
number of mice alive D + 18 / total ([5]; 4 mg/kg/day, PO): 6/7
number of mice dead/day died ([5]; 4 mg/kg/day, PO): 1/8
number of mice alive D + 18 / total ([5]; 4 mg/kg/day, SC): 7/7
number of mice alive D + 18 / total ([5]; 16 mg/kg/day, PO): 7/7
number of mice alive D + 18 / total ([5]; 64 mg/kg/day, PO): 7/7
number of mice alive D + 18 / total ([5]; 64 mg/kg/day, SC): 7/7
number of mice alive D + 18 / total ([5]; 256 mg/kg/day, PO): 6/7
number of mice dead/day died ([5]; 256 mg/kg/day, PO): 1/4
number of mice alive D + 18 / total ([5]; 256 mg/kg/day, SC): 7/7
number of mice alive D + 18 / total ([6]; 16 mg/kg/day): 7/7

C=C[C@H]1C[N@@]2CC[C@H]1C[C@H]2[C@H](O)c1ccnc2ccc(OC)cc12 [quinine, reference compound]
IC50 ([3]; read-out: IC50 (strain resistance)): 800 nM

CCCCN(CCCC)CCC(O)c1cc2c(Cl)cc(Cl)cc2c2cc(C(F)(F)F)ccc12 (centres unmarked) [halofantrine, 1-[1,3-dichlorotrifluoromethyl-9-phenanthryl]-3-di-(n-butyl)-aminopropanolhydrochloride]
number of mice alive day 21/total ([7]; 1 mg/kg/day, PO): 4/7
number of mice alive day 21/total ([7]; 1 mg/kg/day, SC): 2/7
number of mice alive day 21/total ([7]; 4 mg/kg/day, PO): 6/7
number of mice dead/day died ([7]; 4 mg/kg/day, PO): 1/19
number of mice alive day 21/total ([7]; 4 mg/kg/day, SC): 7/7
number of mice alive day 21/total ([7]; 16 mg/kg/day, PO): 6/7
number of mice dead/day died ([7]; 16 mg/kg/day, PO): 1/19
number of mice alive day 21/total ([7]; 16 mg/kg/day, SC): 6/7
number of mice dead/day died ([7]; 16 mg/kg/day, SC): 1/21
systemic bioavailability [8]: problems with systemic bioavailability remained
number of mice alive D + 18 / total ([5]; 1 mg/kg/day, PO): 4/7
number of mice dead/day died ([5]; 1 mg/kg/day, PO): 3/18
number of mice alive D + 18 / total ([5]; 4 mg/kg/day, PO): 6/7
number of mice dead/day died ([5]; 4 mg/kg/day, PO): 1/18
number of mice alive D + 18 / total ([5]; 16 mg/kg/day, PO): 6/6
antimalarial efficacy [9]: effective
antimalarial efficacy [10]: effective
number of mice alive D + 18 / total ([6]; 1 mg/kg/day): 5/7
number of mice alive D + 18 / total ([6]; 4 mg/kg/day): 7/7
number of mice alive D + 18 / total ([6]; 16 mg/kg/day): 7/7

1,3-dichloro-6-triflurormethyl-[1-hydroxy-3-(3-phenyl-1-propylamino)propyl] phenanthrene quinate [Synthesis Example 2]
toxicity [11]: Toxicity clearly evident at this level
number of mice alive day 21/total ([7]; 1 mg/kg/day, PO): 3/7
number of mice alive day 21/total ([7]; 1 mg/kg/day, SC): 3/7
number of mice alive day 21/total ([7]; 4 mg/kg/day, PO): 7/7
number of mice alive day 21/total ([7]; 4 mg/kg/day, SC): 5/7
number of mice alive day 21/total ([7]; 16 mg/kg/day, PO): 6/7
number of mice dead/day died ([7]; 16 mg/kg/day, PO): 1/21
number of mice alive day 21/total ([7]; 16 mg/kg/day, SC): 7/7
number of mice alive day 21/total ([7]; 64 mg/kg/day, PO): 7/7
number of mice alive day 21/total ([7]; 64 mg/kg/day, SC): 7/7
number of mice alive day 21/total ([7]; 256 mg/kg/day, PO): 1/7
number of mice alive day 21/total ([7]; 256 mg/kg/day, SC): 5/7
mean parasitemia ([12]; 4 mg/kg/day, oral): 31.2
mean parasitemia ([12]; 4 mg/kg/day, subcut.): 45.2
mean parasitemia ([12]; 16 mg/kg/day, oral): 16.3
mean parasitemia ([12]; 16 mg/kg/day, subcut.): 10.7
mean parasitemia ([12]; 64 mg/kg/day, oral): 0.14
mean parasitemia ([12]; 64 mg/kg/day, subcut.): 0.4
mean parasitemia ([12]; 256 mg/kg/day, oral): 1.00
mean parasitemia ([12]; 256 mg/kg/day, subcut.): 0.00
mean parasitemia ([12]; 1 (printed "l") mg/kg/day, oral): 19.3
mean parasitemia ([12]; 1 (printed "l") mg/kg/day, subcut.): 61.7

CCc1nc(N)nc(N)c1-c1ccc(Cl)cc1 [pyrimethamine]
survival time [13]: definite increases in survival time

OC(c1cc(C(F)(F)F)nc2c(C(F)(F)F)cccc12)C1CCCCN1 (stereo not drawn) [Mefloquine, α-2-piperidinyl-2,8-bis(trifluorormethyl)-4-quinoline methanol]
antimalarial activity in humans [14]: exhibit antimalarial activity in humans against both chloroquine-sensitive and resistant strains
number of mice alive day 21/total ([7]; 1 mg/kg/day, PO): 0/7
number of mice alive day 21/total ([7]; 4 mg/kg/day, PO): 3/7
number of mice alive day 21/total ([7]; 16 mg/kg/day, PO): 7/7
number of mice alive D + 18 / total ([5]; 1 mg/kg/day, PO): 0/7
number of mice alive D + 18 / total ([5]; 4 mg/kg/day, PO): 6/7
number of mice dead/day died ([5]; 4 mg/kg/day, PO): 1/16
number of mice dead/day died ([5]; 4 mg/kg/day, SC): 3/13
number of mice alive D + 18 / total ([5]; 16 mg/kg/day, PO): 7/7
number of mice alive D + 18 / total ([6]; 1 mg/kg/day): 0/7
number of mice alive D + 18 / total ([6]; 4 mg/kg/day): 4/7
number of mice alive D + 18 / total ([6]; 16 mg/kg/day): 7/7
